Source: article PMC6480306 (General and comparative endocrinology, 2018)

Molecular target: T1, zebrafish mPRα (membrane progestin receptor alpha, Paqr7) (Danio rerio, UniProt Q801G2)
T1 sequence (Q801G2 1-354): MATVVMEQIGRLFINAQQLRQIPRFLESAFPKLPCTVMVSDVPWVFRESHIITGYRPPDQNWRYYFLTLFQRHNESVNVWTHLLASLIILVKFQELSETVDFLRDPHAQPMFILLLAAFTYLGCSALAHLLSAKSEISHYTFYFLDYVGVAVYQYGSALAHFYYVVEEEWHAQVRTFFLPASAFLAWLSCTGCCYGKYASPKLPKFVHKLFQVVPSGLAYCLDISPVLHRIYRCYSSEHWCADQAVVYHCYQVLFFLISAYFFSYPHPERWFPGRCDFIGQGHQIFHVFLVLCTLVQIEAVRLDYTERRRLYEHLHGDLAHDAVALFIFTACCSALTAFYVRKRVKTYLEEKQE
Experiment: [3H]-DHP competitive radioligand binding, filtration assay

| SMILES | IC50 [nM] |
| --- | --- |
| C=C[C@]12CCC(=O)C=C1CC[C@H]1[C@@H]3CC[C@H](C(C)=O)[C@@]3(C)CC[C@@H]12 [02–0, l0-ethenyl-l9-norprogesterone] | 2000 |
| C[C@@H](O)[C@@]1(O)CC[C@H]2[C@@H]3CCC4=CC(=O)CC[C@]4(C)[C@H]3CC[C@@]21C [DHP, 17, 20β-dihydroxy-4-pregnen-3-one] | ~100 |
